Reference: ChEMBL document CHEMBL4507317, “Data for DCP probe BAY-899” (2021)
pKi: −log10 of the molar value.

Columns and labels:
[1] = target: TGF-beta receptor type-1 (Homo sapiens) (UniProt P36897); conditions: Compound concentration 1000.0 nM
[2] = target: Serine/threonine-protein kinase PAK 6 (Homo sapiens) (UniProt Q9NQU5); conditions: Compound concentration 1000.0 nM
[3] = target: Protein kinase C iota type (Homo sapiens) (UniProt P41743); conditions: Compound concentration 1000.0 nM
[4] = target: Tyrosine-protein kinase Fer (Homo sapiens) (UniProt P16591); conditions: Compound concentration 1000.0 nM
[5] = tested on: Phosphatidylinositol 4,5-bisphosphate 3-kinase catalytic subunit alpha isoform (Homo sapiens), P42336 [M1043I]; conditions: Compound concentration 1000.0 nM
[6] = target: Myosin light chain kinase, smooth muscle (Homo sapiens) (UniProt Q15746); conditions: Compound concentration 1000.0 nM
[7] = target: Serine/threonine-protein kinase 32B (Homo sapiens) (UniProt Q9NY57); conditions: Compound concentration 1000.0 nM
[8] = target: Leucine-rich repeat serine/threonine-protein kinase 2 (Homo sapiens) (UniProt Q5S007); conditions: Compound concentration 1000.0 nM
[9] = target: Tyrosine-protein kinase Yes (Homo sapiens) (UniProt P07947); conditions: Compound concentration 1000.0 nM
[10] = target: Serine/threonine-protein kinase OSR1 (Homo sapiens) (UniProt O95747); conditions: Compound concentration 1000.0 nM
[11] = target: Tyrosine-protein kinase Fyn (Homo sapiens) (UniProt P06241); conditions: Compound concentration 1000.0 nM
[12] = target: Mitogen-activated protein kinase 9 (Homo sapiens) (UniProt P45984); conditions: Compound concentration 1000.0 nM
[13] = target: MAP kinase-interacting serine/threonine-protein kinase 1 (Homo sapiens) (UniProt Q9BUB5); conditions: Compound concentration 1000.0 nM
[14] = target: Tyrosine-protein kinase JAK1 (Homo sapiens) (UniProt P23458); conditions: Compound concentration 1000.0 nM
[15] = tested on: Hepatocyte growth factor receptor (Homo sapiens), P08581 [Y1235D]; conditions: Compound concentration 1000.0 nM
[16] = target: Death-associated protein kinase 1 (Homo sapiens) (UniProt P53355); conditions: Compound concentration 1000.0 nM
[17] = target: Phosphatidylinositol 4-phosphate 5-kinase type-1 gamma (Homo sapiens) (UniProt O60331); conditions: Compound concentration 1000.0 nM
Phosphatidylinositol 4-phosphate 5-kinase type-1 gamma (Homo sapiens), sequence (O60331 whole entry): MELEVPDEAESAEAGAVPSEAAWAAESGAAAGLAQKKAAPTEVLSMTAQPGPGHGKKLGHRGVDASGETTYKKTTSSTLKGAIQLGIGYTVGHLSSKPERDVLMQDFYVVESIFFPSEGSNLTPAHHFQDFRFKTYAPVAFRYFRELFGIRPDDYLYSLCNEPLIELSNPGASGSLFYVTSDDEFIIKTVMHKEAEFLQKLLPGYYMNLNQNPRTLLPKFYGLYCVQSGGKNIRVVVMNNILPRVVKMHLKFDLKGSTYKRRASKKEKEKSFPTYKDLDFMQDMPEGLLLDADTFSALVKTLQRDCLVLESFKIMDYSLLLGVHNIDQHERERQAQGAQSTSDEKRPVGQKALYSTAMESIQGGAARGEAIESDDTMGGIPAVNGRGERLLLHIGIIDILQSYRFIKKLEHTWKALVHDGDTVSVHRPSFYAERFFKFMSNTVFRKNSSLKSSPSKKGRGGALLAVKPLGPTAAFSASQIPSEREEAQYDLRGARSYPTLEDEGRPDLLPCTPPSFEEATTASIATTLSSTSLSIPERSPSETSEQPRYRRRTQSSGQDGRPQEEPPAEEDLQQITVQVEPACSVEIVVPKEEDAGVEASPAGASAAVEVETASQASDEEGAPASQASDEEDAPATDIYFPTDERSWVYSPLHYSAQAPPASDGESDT

[18] = target: Dual specificity mitogen-activated protein kinase kinase 4 (Homo sapiens) (UniProt P45985); conditions: Compound concentration 1000.0 nM
[19] = target: Cyclin-dependent kinase 18 (Homo sapiens) (UniProt Q07002); conditions: Compound concentration 1000.0 nM
[20] = target: Serine/threonine-protein kinase DCLK2 (Homo sapiens) (UniProt Q8N568); conditions: Compound concentration 1000.0 nM
Serine/threonine-protein kinase DCLK2 (Homo sapiens), sequence (Q8N568 whole entry): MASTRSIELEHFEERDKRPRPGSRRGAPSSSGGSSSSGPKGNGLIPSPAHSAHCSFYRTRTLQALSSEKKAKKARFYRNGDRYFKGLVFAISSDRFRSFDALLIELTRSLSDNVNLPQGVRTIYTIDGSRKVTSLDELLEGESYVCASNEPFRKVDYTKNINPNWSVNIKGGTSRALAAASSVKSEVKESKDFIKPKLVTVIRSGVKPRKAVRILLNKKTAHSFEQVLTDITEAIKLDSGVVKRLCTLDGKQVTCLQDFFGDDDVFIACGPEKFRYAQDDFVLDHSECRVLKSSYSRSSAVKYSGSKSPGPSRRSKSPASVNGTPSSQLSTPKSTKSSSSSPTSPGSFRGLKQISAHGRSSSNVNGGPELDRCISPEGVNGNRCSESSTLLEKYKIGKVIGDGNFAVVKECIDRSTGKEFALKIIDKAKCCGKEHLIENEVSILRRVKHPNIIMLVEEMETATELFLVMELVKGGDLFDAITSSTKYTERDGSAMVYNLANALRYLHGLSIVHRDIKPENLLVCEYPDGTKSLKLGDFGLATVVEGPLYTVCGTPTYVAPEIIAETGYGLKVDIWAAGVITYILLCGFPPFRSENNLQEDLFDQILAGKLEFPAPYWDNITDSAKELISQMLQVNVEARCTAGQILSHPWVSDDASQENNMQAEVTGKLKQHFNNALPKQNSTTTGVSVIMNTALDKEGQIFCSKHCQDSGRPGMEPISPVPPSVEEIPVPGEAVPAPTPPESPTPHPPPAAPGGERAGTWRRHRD

[21] = target: MAP/microtubule affinity-regulating kinase 4 (Homo sapiens) (UniProt Q96L34); conditions: Compound concentration 1000.0 nM
[22] = target: Homeodomain-interacting protein kinase 2 (Homo sapiens) (UniProt Q9H2X6); conditions: Compound concentration 1000.0 nM
[23] = target: 5'-AMP-activated protein kinase catalytic subunit alpha-2 (Homo sapiens) (UniProt P54646); conditions: Compound concentration 1000.0 nM
[24] = tested on: Tyrosine-protein kinase ABL1 (Homo sapiens), P00519 [Y253F]; conditions: Compound concentration 1000.0 nM
[25] = tested on: Proto-oncogene tyrosine-protein kinase receptor Ret (Homo sapiens), P07949 [V804L]; conditions: Compound concentration 1000.0 nM
[26] = target: Phosphatidylinositol 4-phosphate 5-kinase type-1 alpha (Homo sapiens) (UniProt Q99755); conditions: Compound concentration 1000.0 nM
Phosphatidylinositol 4-phosphate 5-kinase type-1 alpha (Homo sapiens), sequence (Q99755 whole entry): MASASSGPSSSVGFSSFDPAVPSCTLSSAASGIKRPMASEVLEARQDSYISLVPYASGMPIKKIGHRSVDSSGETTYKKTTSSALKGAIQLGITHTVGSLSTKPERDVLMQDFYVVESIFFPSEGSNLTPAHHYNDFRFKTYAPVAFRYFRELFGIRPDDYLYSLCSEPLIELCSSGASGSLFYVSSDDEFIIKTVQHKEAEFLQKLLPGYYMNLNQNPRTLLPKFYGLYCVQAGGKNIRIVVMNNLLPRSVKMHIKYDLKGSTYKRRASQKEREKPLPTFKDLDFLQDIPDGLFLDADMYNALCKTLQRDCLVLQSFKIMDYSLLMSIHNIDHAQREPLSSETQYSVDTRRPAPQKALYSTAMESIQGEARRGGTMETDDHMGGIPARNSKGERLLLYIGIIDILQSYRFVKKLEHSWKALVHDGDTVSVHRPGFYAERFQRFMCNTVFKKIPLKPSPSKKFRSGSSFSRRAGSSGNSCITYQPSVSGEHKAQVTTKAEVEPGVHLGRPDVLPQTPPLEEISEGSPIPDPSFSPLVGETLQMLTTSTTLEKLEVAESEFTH

[27] = target: Interleukin-1 receptor-associated kinase 1 (Homo sapiens) (UniProt P51617); conditions: Compound concentration 1000.0 nM
[28] = target: Eukaryotic translation initiation factor 2-alpha kinase 1 (Homo sapiens) (UniProt Q9BQI3); conditions: Compound concentration 1000.0 nM
Eukaryotic translation initiation factor 2-alpha kinase 1 (Homo sapiens), sequence (Q9BQI3 whole entry, canonical isoform): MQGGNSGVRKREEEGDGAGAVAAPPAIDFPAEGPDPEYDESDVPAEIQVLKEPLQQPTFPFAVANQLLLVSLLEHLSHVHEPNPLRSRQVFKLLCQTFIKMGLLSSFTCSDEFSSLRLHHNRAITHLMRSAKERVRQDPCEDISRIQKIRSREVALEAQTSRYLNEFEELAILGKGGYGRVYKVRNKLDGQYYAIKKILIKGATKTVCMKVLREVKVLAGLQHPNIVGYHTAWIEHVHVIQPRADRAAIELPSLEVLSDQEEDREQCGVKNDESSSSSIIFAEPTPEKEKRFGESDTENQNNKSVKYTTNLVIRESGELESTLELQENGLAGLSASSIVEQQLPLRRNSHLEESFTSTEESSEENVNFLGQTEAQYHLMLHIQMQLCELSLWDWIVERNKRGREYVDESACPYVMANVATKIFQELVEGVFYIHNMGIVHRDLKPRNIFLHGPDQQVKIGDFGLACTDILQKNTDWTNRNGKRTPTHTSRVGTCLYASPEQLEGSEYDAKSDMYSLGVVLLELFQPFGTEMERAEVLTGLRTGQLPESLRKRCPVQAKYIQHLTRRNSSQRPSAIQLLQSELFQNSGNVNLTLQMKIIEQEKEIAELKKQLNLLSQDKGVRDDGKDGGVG

[29] = target: Casein kinase I isoform alpha-like (Homo sapiens) (UniProt Q8N752); conditions: Compound concentration 1000.0 nM
[30] = tested on: Receptor-type tyrosine-protein kinase FLT3 (Homo sapiens), P36888 [D835V]; conditions: Compound concentration 1000.0 nM
[31] = target: Receptor tyrosine-protein kinase erbB-3 (Homo sapiens) (UniProt P21860); conditions: Compound concentration 1000.0 nM
Receptor tyrosine-protein kinase erbB-3 (Homo sapiens), sequence (P21860 whole entry): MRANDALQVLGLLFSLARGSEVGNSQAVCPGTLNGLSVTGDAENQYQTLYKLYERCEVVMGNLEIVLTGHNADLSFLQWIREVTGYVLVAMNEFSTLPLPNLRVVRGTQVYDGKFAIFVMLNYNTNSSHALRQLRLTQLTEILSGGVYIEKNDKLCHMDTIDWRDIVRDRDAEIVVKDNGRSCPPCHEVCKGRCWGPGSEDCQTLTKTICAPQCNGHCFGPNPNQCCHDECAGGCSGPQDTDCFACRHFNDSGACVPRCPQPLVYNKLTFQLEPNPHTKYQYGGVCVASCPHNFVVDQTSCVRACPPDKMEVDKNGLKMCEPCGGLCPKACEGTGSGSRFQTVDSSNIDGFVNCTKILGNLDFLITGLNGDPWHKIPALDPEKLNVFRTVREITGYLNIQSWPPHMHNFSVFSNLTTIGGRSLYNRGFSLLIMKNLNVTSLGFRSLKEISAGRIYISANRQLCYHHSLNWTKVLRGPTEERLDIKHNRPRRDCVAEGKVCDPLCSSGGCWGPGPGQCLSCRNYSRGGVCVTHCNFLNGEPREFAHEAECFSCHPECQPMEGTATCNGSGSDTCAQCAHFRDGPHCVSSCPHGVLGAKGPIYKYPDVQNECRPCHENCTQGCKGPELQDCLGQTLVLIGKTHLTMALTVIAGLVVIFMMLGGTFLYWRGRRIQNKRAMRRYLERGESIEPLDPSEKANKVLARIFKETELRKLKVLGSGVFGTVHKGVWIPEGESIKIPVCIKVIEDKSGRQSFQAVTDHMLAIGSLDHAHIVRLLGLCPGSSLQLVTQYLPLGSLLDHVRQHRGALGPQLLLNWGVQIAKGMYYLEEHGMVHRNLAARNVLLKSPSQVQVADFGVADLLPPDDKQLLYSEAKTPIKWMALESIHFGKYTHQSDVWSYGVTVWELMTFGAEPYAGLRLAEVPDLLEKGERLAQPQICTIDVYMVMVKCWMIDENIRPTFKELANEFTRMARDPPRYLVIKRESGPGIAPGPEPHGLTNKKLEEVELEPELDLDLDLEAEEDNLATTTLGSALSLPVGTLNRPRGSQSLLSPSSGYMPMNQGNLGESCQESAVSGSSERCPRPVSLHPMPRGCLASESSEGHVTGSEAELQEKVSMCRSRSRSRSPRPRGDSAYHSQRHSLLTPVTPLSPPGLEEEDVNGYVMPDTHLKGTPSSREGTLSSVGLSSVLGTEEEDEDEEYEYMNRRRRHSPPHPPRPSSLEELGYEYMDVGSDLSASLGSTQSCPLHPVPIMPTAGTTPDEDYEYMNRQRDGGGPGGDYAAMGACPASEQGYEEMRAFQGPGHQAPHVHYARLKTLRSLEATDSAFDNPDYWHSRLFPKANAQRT

[32] = target: Sigma intracellular receptor 2 (Homo sapiens, UniProt Q5BJF2); assay: GPCRScan assay: inhibition of Sigma 2; design: radioligand conc. used [nm] 5.0, parental cells HEKT
[33] = target: Histamine H1 receptor (Homo sapiens) (UniProt P35367); conditions: Compound concentration 10.0 uM
[34] = target: Membrane-associated tyrosine- and threonine-specific cdc2-inhibitory kinase (Homo sapiens) (UniProt Q99640); conditions: Compound concentration 1000.0 nM
[35] = target: Serine/threonine-protein kinase 17B (Homo sapiens) (UniProt O94768); conditions: Compound concentration 1000.0 nM
[36] = target: Serine/threonine-protein kinase PLK3 (Homo sapiens) (UniProt Q9H4B4); conditions: Compound concentration 1000.0 nM
[37] = tested on: Tyrosine-protein kinase ABL1 (Homo sapiens), P00519 [H396P]; conditions: Compound concentration 1000.0 nM
[38] = target: Serine/threonine-protein kinase pim-2 (Homo sapiens) (UniProt Q9P1W9); conditions: Compound concentration 1000.0 nM
[39] = target: Tyrosine-protein kinase JAK2 (Homo sapiens) (UniProt O60674); conditions: Compound concentration 1000.0 nM
[40] = target: Phosphorylase b kinase gamma catalytic chain, skeletal muscle/heart isoform (Homo sapiens) (UniProt Q16816); conditions: Compound concentration 1000.0 nM
Phosphorylase b kinase gamma catalytic chain, skeletal muscle/heart isoform (Homo sapiens), sequence (Q16816 whole entry, looked up, canonical isoform): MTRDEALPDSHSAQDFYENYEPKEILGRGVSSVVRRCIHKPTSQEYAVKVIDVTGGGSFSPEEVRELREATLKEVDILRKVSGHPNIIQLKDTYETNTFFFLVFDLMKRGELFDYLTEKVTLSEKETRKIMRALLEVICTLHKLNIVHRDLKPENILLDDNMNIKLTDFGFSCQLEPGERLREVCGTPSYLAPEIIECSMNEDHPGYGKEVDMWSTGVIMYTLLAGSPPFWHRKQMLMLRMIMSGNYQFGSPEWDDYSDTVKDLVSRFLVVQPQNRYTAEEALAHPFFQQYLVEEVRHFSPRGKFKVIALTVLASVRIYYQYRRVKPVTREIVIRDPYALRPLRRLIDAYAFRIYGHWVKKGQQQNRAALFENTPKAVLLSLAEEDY

Rattus norvegicus = species on record: Rattus norvegicus; conditions: Compound concentration 10.0 uM
[41] = target: Serine/threonine-protein kinase TNNI3K (Homo sapiens) (UniProt Q59H18); conditions: Compound concentration 1000.0 nM
[42] = target: Serine/threonine-protein kinase 32A (Homo sapiens) (UniProt Q8WU08); conditions: Compound concentration 1000.0 nM
[43] = target: 5'-AMP-activated protein kinase catalytic subunit alpha-1 (Homo sapiens) (UniProt Q13131); conditions: Compound concentration 1000.0 nM
[44] = target: Serine/threonine-protein kinase TBK1 (Homo sapiens) (UniProt Q9UHD2); conditions: Compound concentration 1000.0 nM

Protein kinase C iota type (Homo sapiens), sequence (P41743 whole entry): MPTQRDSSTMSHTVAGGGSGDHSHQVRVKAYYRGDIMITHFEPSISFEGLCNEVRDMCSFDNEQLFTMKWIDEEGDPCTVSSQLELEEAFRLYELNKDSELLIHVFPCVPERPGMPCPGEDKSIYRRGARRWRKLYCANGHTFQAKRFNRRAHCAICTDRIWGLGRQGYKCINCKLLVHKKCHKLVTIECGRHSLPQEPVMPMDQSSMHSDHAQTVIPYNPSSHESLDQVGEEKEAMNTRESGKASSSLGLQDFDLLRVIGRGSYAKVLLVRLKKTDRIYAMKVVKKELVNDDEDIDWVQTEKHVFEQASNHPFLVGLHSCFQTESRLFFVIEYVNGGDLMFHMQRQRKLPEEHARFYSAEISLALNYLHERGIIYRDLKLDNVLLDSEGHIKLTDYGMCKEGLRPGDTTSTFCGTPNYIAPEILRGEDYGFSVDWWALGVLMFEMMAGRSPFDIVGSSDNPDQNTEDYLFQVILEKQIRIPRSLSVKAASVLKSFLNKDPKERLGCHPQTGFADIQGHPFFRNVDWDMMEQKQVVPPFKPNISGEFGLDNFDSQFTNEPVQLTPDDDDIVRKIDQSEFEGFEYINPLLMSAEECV

Compound: O=C(Nc1ccc(Oc2ccc(F)cc2)cc1)N1CCc2ncccc2[C@H]1c1ccc(F)cc1 [BAY-897]
- residual activity [1]: 85%
- residual activity [2]: 100%
- residual activity [3]: 100%
- residual activity [4]: 91%
- residual activity [5]: 89%
- residual activity [6]: 100%
- residual activity [7]: 72%
- residual activity [8]: 76%
- residual activity [9]: 100%
- residual activity [10]: 90%
- residual activity [11]: 89%
- residual activity [12]: 88%
- residual activity [13]: 95%
- residual activity [14]: 94%
- residual activity [15]: 86%
- residual activity [16]: 87%
- residual activity [17]: 96%
- residual activity [18]: 86%
- residual activity [19]: 98%
- residual activity [20]: 87%
- residual activity [21]: 86%
- residual activity [22]: 79%
- residual activity [23]: 51%
- residual activity [24]: 82%
- residual activity [25]: 95%
- residual activity [26]: 95%
- residual activity [27]: 88%
- residual activity [28]: 100%
- residual activity [29]: 92%
- residual activity [30]: 96%
- residual activity [31]: 100%
- pKi [32]: 6.17
- inhibition [33]: 15.9%
- residual activity [34]: 63%
- residual activity [35]: 89%
- residual activity [36]: 87%
- residual activity [37]: 92%
- residual activity [38]: 93%
- residual activity [39]: 100%
- residual activity [40]: 100%
- inhibition (Rattus norvegicus): 33.4%
- residual activity [41]: 100%
- residual activity [42]: 100%
- residual activity [43]: 96%
- residual activity [44]: 81%

Compound: O=C(Nc1cnc(Oc2ccc(F)cc2)nc1)N1CCc2ncccc2[C@@H]1c1ccc(F)cc1 [BAY-899]
- residual activity [1]: 90%
- residual activity [2]: 100%
- residual activity [3]: 98%
- residual activity [4]: 93%
- residual activity [5]: 100%
- residual activity [6]: 100%
- residual activity [7]: 87%
- residual activity [8]: 83%
- residual activity [9]: 98%
- residual activity [10]: 93%
- residual activity [11]: 100%
- residual activity [12]: 85%
- residual activity [13]: 95%
- residual activity [14]: 86%
- residual activity [15]: 93%
- residual activity [16]: 78%
- residual activity [17]: 100%
- residual activity [18]: 100%
- residual activity [19]: 96%
- residual activity [20]: 90%
- residual activity [21]: 91%
- residual activity [22]: 91%
- residual activity [23]: 79%
- residual activity [24]: 100%
- residual activity [25]: 86%
- residual activity [26]: 100%
- residual activity [27]: 88%
- residual activity [28]: 100%
- residual activity [29]: 82%
- residual activity [30]: 100%
- residual activity [31]: 100%
- pKi [32]: 5.69
- inhibition [33]: 5.89%
- residual activity [34]: 80%
- residual activity [35]: 92%
- residual activity [36]: 87%
- residual activity [37]: 100%
- residual activity [38]: 94%
- residual activity [39]: 84%
- residual activity [40]: 100%
- inhibition (Rattus norvegicus): 44.6%
- residual activity [41]: 100%
- residual activity [42]: 100%
- residual activity [43]: 88%
- residual activity [44]: 87%
